Activity calls are given as the source filed them. No stated cut-off is given here; in the data, actives have a measured IC50 and inactives only a lower limit.
Columns and labels:
Format in all cases: functional
[1] = target: T1, Sentrin-specific protease 8 (Homo sapiens, UniProt Q96LD8);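 further: luminescence read-out of SENP8 inhibition, dose-response confirmation following an ultra-high-throughput screen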
T1 sequence (Q96LD8 whole entry): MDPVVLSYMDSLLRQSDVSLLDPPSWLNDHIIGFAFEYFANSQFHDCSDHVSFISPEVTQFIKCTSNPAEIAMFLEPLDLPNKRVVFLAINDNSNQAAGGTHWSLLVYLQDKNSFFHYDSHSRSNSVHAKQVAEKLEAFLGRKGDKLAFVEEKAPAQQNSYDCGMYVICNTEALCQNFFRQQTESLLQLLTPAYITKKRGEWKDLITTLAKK

[2] = target: T2, Apoptotic protease-activating factor 1 (Homo sapiens, UniProt O14727)
T2 sequence (O14727 whole entry): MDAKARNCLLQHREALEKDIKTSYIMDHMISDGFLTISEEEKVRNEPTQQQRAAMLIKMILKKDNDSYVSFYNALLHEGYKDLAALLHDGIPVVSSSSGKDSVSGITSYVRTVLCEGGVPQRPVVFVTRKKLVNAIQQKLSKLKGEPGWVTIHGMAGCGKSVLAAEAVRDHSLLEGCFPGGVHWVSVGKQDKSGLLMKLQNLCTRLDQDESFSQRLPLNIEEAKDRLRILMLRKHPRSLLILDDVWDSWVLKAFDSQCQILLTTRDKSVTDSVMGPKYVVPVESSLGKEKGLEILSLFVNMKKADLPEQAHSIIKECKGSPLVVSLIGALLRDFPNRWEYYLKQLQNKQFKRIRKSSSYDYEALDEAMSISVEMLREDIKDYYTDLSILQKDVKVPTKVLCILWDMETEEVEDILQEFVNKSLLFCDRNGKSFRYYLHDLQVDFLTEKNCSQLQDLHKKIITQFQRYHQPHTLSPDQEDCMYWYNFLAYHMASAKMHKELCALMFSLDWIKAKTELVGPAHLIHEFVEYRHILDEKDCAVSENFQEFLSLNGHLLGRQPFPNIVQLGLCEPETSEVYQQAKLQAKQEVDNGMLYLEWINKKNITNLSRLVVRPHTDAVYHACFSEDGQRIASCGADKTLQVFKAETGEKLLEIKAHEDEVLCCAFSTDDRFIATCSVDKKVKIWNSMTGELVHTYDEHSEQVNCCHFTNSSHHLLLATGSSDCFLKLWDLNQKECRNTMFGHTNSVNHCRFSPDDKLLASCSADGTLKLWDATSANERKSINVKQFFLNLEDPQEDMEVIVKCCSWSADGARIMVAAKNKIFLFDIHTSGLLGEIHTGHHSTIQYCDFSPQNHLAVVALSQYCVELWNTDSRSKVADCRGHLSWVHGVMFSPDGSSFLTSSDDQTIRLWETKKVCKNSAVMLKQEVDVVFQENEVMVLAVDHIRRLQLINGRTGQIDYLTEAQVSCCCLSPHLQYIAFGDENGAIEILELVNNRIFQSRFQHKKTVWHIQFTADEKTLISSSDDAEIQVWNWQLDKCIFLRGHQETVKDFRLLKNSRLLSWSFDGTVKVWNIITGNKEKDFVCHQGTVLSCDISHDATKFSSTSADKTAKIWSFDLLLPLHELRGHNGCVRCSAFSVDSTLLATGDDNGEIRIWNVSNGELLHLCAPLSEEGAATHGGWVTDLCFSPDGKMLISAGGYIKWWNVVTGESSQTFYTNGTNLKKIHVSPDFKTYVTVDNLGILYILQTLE

[3] = target: T3, Sentrin-specific protease 7 (Homo sapiens, UniProt Q9BQF6);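 further: Luminescence-based dose-response confirmation of ultra-high-throughput screening hits, measuring inhibition of SENP7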
T3 sequence (Q9BQF6 whole entry): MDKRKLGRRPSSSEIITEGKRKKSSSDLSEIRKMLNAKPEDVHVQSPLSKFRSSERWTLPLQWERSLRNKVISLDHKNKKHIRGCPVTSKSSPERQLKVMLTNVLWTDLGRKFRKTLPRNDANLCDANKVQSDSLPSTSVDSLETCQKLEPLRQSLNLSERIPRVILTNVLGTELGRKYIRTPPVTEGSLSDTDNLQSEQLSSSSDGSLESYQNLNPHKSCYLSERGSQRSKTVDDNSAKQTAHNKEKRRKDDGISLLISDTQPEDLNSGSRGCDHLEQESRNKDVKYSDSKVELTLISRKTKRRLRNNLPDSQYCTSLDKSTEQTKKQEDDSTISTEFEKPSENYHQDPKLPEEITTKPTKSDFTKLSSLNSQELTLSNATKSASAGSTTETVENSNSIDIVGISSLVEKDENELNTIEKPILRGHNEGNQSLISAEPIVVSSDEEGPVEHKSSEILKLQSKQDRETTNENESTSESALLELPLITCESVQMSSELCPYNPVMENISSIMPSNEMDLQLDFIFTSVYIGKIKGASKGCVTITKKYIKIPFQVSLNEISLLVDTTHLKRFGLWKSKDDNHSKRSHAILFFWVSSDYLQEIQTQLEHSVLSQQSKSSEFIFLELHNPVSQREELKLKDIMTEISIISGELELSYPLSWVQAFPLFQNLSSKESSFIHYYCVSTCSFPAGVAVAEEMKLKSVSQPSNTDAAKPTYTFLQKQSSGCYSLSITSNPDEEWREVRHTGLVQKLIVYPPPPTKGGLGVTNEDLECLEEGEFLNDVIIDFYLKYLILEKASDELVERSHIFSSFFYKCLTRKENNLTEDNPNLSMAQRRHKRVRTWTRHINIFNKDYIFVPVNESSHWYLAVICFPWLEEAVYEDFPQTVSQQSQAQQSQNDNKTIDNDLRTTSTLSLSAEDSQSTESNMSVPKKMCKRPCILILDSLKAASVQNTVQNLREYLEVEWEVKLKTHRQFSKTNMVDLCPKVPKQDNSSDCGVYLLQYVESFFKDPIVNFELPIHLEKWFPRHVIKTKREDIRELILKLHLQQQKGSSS

Measured: IC50

CC(C)n1cnc2c(NCc3ccccc3)cc(OCC3CCN(C)CC3)cc21
active: [1] 4.97 µM | [2] 6.63 µM | [3] 5.65 µM

CC(C)N(C(=O)Nc1ccc2nsnc2c1)C(C)C
active: [1] 2.41 µM | [2] 6.61 µM | [3] 3.49 µM

NS(=O)(=O)c1ccc(NC2=CC(=O)C(=O)c3ccccc32)cc1
active: [1] 4.96 µM | [2] 2.08 µM | [3] 7.93 µM

From ChEMBL document CHEMBL1201862, “PubChem BioAssay data set” (2004)
